From patent publication US9635859B2, “Pesticidal compositions and processes related thereto” (Dow AgroSciences LLC, priority 2012, dated 2017)

System: Beet Armyworm (Spodoptera exigua)
Assay: Bioassays on BAW, 128-well diet tray assay
Format: in vivo
Conditions: percent mortality, second instar larvae, 50 μg/cm^2 on artificial diet, five to seven days, 25° C.; Table 3
Method: Certain molecules disclosed in this document were tested against BAW and CEW and CL using procedures described in the following examples. In the reporting of the results, the “BAW & CEW & CL Rating Table” was used (See Table Section).
Bioassays on BAW (Spodoptera exigua)
Bioassays on BAW were conducted using a 128-well diet tray assay. one to five second instar BAW larvae were placed in each well (3 mL) of the diet tray that had been previously filled with 1 mL of artificial diet to which 50 μg/cm^2 of the test compound (dissolved in 50 μL of 90:10 acetone-water mixture) had been applied (to each of eight wells) and then allowed to dry. Trays were covered with a clear self-adhesive cover, and held at 25° C., 14:10 light-dark for five to seven days. Percent mortality was recorded for the larvae in each well; activity in the eight wells was then averaged. The results are indicated in the table entitled “Table 3: Assay Results” (See Table Section).

## O=C(NCc1ccc(/C=C/C(c2cc(Cl)c(Cl)c(Cl)c2)C(F)(F)F)cc1Br)C1CC1 (stereo not shown) [CC26]
  BAW Rating: A (50-100)

## O=C(CC(F)(F)F)NCc1ccc(/C=C/C(c2cc(Cl)c(Cl)c(Cl)c2)C(F)(F)F)cc1F (stereo not shown) [CC27]
  BAW Rating: A (50-100)

## O=C(NCc1ccc(/C=C/C(c2cc(Cl)c(Cl)c(Cl)c2)C(F)(F)F)cc1F)C1CC1 (stereo not shown) [CC28]
  BAW Rating: A (50-100)

## O=C(C1CC1)N(Cc1ccccn1)Cc1ccc(/C=C/C(c2cc(Cl)c(Cl)c(Cl)c2)C(F)(F)F)cc1C(F)(F)F (stereo not shown) [CC29, (E)-N-(Pyridin-2-ylmethyl)-N-(4-(4,4,4-trifluoro-3-(3,4,5-trichlorophenyl)but-1-enyl)-2-(trifluoromethyl)benzyl)cyclopropanecarboxamide]
  BAW Rating: A (50-100)

## CS(=O)(=O)CCC(=O)NCc1ccc(/C=C/C(c2cc(Cl)c(Cl)c(Cl)c2)C(F)(F)F)cc1Cl (stereo not shown) [CC30, (E)-N-(2-Chloro-4-(4,4,4-trifluoro-3-(3,4,5-trichlorophenyl)but-1-en-1-yl)benzyl)-3-(methylsulfonyl)propanamide]
  BAW Rating: A (50-100)

## CCNC(=O)NCc1ccc(/C=C/C(c2cc(Cl)cc(Cl)c2)C(F)(F)F)cc1Cl (stereo not shown) [CC31, (E)-1-(2-Chloro-4-(3-(3,5-dichlorophenyl)-4,4,4-trifluorobut-1-en-1-yl)benzyl)-3-ethylurea]
  BAW Rating: B (More than 0-Less than 50)

## CCNC(=O)NCc1ccc(/C=C/C(c2cc(Cl)c(Cl)c(Cl)c2)C(F)(F)F)cc1C(F)(F)F (stereo not shown) [CC32]
  BAW Rating: A (50-100)

## CCNC(=O)NCc1ccc(/C=C/C(c2cc(Cl)c(Cl)c(Cl)c2)C(F)(F)F)cc1Br (stereo not shown) [CC33]
  BAW Rating: A (50-100)

## O=C(NCc1ccc(/C=C/C(c2cc(Cl)c(Cl)c(Cl)c2)C(F)(F)F)cc1Cl)N1CCOCC1 (stereo not shown) [CC34]
  BAW Rating: A (50-100)

## CN(C)C(=O)NCc1ccc(/C=C/C(c2cc(Cl)c(Cl)c(Cl)c2)C(F)(F)F)cc1Cl (stereo not shown) [CC36, (E)-3-(2-Chloro-4-(4,4,4-trifluoro-3-(3,4,5-trichlorophenyl)but-1-en-1-yl)benzyl)-1,1-dimethylurea]
  BAW Rating: A (50-100)

## CCNC(=S)NCc1ccc(/C=C/C(c2cc(Cl)c(Cl)c(Cl)c2)C(F)(F)F)cc1Cl (stereo not shown) [CC37, (E)-1-(2-Chloro-4-(4,4,4-trifluoro-3-(3,4,5-trichlorophenyl)but-1-en-1-yl)benzyl)-3-ethylthiourea]
  BAW Rating: A (50-100)

## C=CCNC(=S)NCc1ccc(/C=C/C(c2cc(Cl)c(Cl)c(Cl)c2)C(F)(F)F)cc1Cl (stereo not shown) [CC38]
  BAW Rating: A (50-100)

## FC(F)(F)C(/C=C/c1ccc(CNc2ccccn2)c(Cl)c1)c1cc(Cl)c(Cl)c(Cl)c1 (stereo not shown) [CC43, (E)-N-(2-Chloro-4-(4,4,4-trifluoro-3-(3,4,5-trichlorophenyl)but-1-en-1-yl)benzyl)pyridin-2-amine]
  BAW Rating: A (50-100)

## O=C(CC(F)(F)F)NCc1ncc(/C=C/C(c2cc(Cl)c(Cl)c(Cl)c2)C(F)(F)F)cc1Cl (stereo not shown) [CC44, (E)-N-((3-Chloro-5-(4,4,4-trifluoro-3-(3,4,5-trichlorophenyl)-but-1-en-1-yl)pyridin-2-yl)methyl)-3,3,3-trifluoropropanamide]
  BAW Rating: A (50-100)

## O=C(NCc1ncc(/C=C/C(c2cc(Cl)c(Cl)c(Cl)c2)C(F)(F)F)cc1Cl)C1CC1 (stereo not shown) [CC45]
  BAW Rating: A (50-100)

## O=C(NNc1ccc(/C=C/C(c2cc(Cl)c(Cl)c(Cl)c2)C(F)(F)F)cc1)C1CC1 (stereo not shown) [CC50, (E)-N′-(4-(4,4,4-Trifluoro-3-(3,4,5-trichlorophenyl)but-1-en-1-yl)phenyl)cyclopropanecarbohydrazide]
  BAW Rating: A (50-100)

## O=C(CC(F)(F)F)NNc1ccc(/C=C/C(c2cc(Cl)c(Cl)c(Cl)c2)C(F)(F)F)cc1 (stereo not shown) [CC51]
  BAW Rating: A (50-100)

## O=C(NOc1ccc(/C=C/C(c2cc(Cl)c(Cl)c(Cl)c2)C(F)(F)F)cc1)C1CC1 (stereo not shown) [CC52, (E)-N-(4-(4,4,4-Trifluoro-3-(3,4,5-trichlorophenyl)but-1-en-1-yl)phenoxy)cyclopropanecarboxamide]
  BAW Rating: A (50-100)

## O=C(CC(F)(F)F)NCc1ccc(/C=C\C(c2cc(Cl)c(Cl)c(Cl)c2)C(F)(F)F)cc1 (stereo not shown) [CC54, (Z)-3,3,3-Trifluoro-N-(4-(4,4,4-trifluoro-3-(3,4,5-trichlorophenyl)but-1-en-1-yl)benzyl)propanamide]
  BAW Rating: A (50-100)

## FC(F)(F)C(/C=C/c1ccc(-n2cncn2)cc1)c1cc(Cl)cc(Cl)c1 (stereo not shown) [DC1, (E)-1-(4-(3-(3,5-Dichlorophenyl)-4,4,4-trifluorobut-1-en-1-yl)phenyl)-1H-1,2,4-triazole]
  BAW Rating: A (50-100)

## FC(F)(F)C(/C=C/c1ccc(-n2cncn2)cc1)c1ccccc1 (stereo not shown) [DC3]
  BAW Rating: B (More than 0-Less than 50)

## FC(F)(F)C(/C=C/c1ccc(-n2cncn2)cc1)c1ccc(Cl)cc1 (stereo not shown) [DC4]
  BAW Rating: A (50-100)

## Fc1ccc(C(/C=C/c2ccc(-n3cncn3)cc2)C(F)(F)F)cc1 (stereo not shown) [DC7]
  BAW Rating: A (50-100)

## Fc1cc(F)cc(C(/C=C/c2ccc(-n3cncn3)cc2)C(F)(F)F)c1 (stereo not shown) [DC8]
  BAW Rating: A (50-100)

## Cc1cc(C)cc(C(/C=C/c2ccc(-n3cncn3)cc2)C(F)(F)F)c1 (stereo not shown) [DC11]
  BAW Rating: A (50-100)

## FC(F)(F)C(/C=C/c1ccc(-n2cncn2)cc1)c1ccc(Cl)c(Cl)c1 (stereo not shown) [DC12]
  BAW Rating: A (50-100)

## FC(F)(F)c1cc(C(/C=C/c2ccc(-n3cncn3)cc2)C(F)(F)F)cc(C(F)(F)F)c1 (stereo not shown) [DC16]
  BAW Rating: A (50-100)

## COc1c(Cl)cc(C(/C=C/c2ccc(-n3cncn3)cc2)C(F)(F)F)cc1Cl (stereo not shown) [DC20]
  BAW Rating: A (50-100)

## N#Cc1cc(/C=C/C(c2cc(Cl)cc(C(F)(F)F)c2)C(F)(F)F)ccc1-n1cncn1 (stereo not shown) [DC33]
  BAW Rating: A (50-100)

## COc1c(Cl)cc(C(/C=C/c2ccc(-n3cncn3)c(C#N)c2)C(F)(F)F)cc1Cl (stereo not shown) [DC34]
  BAW Rating: A (50-100)

## N#Cc1cc(/C=C/C(c2cc(Cl)c(F)c(Cl)c2)C(F)(F)F)ccc1-n1cncn1 (stereo not shown) [DC35]
  BAW Rating: A (50-100)

## N#Cc1cc(/C=C/C(c2cc(Cl)cc(Cl)c2)C(F)(F)F)ccc1-n1cnc([N+](=O)[O-])n1 (stereo not shown) [DC37]
  BAW Rating: A (50-100)

## N#Cc1cc(/C=C/C(c2cc(Cl)cc(Cl)c2)C(F)(F)F)ccc1-n1cnc(N)n1 (stereo not shown) [DC38]
  BAW Rating: A (50-100)

## CC(=O)Nc1ncn(-c2ccc(/C=C/C(c3cc(Cl)cc(Cl)c3)C(F)(F)F)cc2C#N)n1 (stereo not shown) [DC39]
  BAW Rating: A (50-100)

## N#Cc1cc(/C=C/C(c2cc(Cl)c(Cl)c(Cl)c2)C(F)(F)F)ccc1-n1cnc([N+](=O)[O-])n1 (stereo not shown) [DC40, (E)-2-(3-Nitro-1H-1,2,4-triazol-1-yl)-5-(4,4,4-trifluoro-3-(3,4,5-trichlorophenyl)but-1-en-1-yl)benzonitrile]
  BAW Rating: A (50-100)

## N#Cc1cc(/C=C/C(c2cc(Cl)c(Cl)c(Cl)c2)C(F)(F)F)ccc1-n1cnc(N)n1 (stereo not shown) [DC41, (E)-2-(3-Amino-1H-1,2,4-triazol-1-yl)-5-(4,4,4-trifluoro-3-(3,4,5-trichlorophenyl)but-1-en-1-yl)benzonitrile]
  BAW Rating: A (50-100)

## N#Cc1cc(/C=C/C(c2cc(Cl)c(Cl)c(Cl)c2)C(F)(F)F)ccc1-n1cnc(N(C(=O)C2CC2)C(=O)C2CC2)n1 (stereo not shown) [DC42, (E)-N-(1-(2-Cyano-4-(4,4,4-trifluoro-3-(3,4,5-trichlorophenyl)but-1-en-1-yl)phenyl)-1H-1,2,4-triazol-3-yl)-N-(cyclopropanecarbonyl)cyclopropanecarboxamide]
  BAW Rating: A (50-100)

## N#Cc1cc(/C=C/C(c2cc(Cl)c(Cl)c(Cl)c2)C(F)(F)F)ccc1-n1cnc(NC(=O)C2CC2)n1 (stereo not shown) [DC43, (E)-N-(1-(2-Cyano-4-(4,4,4-trifluoro-3-(3,4,5-trichlorophenyl)but-1-en-1-yl)phenyl)-1H-1,2,4-triazol-3-yl)cyclopropanecarboxamide]
  BAW Rating: A (50-100)

## Cc1cc(/C=C/C(c2cc(Cl)cc(Cl)c2)C(F)(F)F)cc(C#N)c1-n1cncn1 (stereo not shown) [DC44]
  BAW Rating: A (50-100)

## Cc1cc(/C=C/C(c2cc(Cl)c(Cl)c(Cl)c2)C(F)(F)F)cc(C#N)c1-n1cncn1 (stereo not shown) [DC45]
  BAW Rating: A (50-100)

## N#Cc1cc(/C=C\C(c2cc(Cl)c(F)c(Cl)c2)C(F)(F)F)ccc1-n1cncn1 (stereo not shown) [DC46]
  BAW Rating: A (50-100)

## FC(F)(F)C(/C=C/c1ccc(-n2cncn2)c(Br)c1)c1cc(Cl)cc(Cl)c1 (stereo not shown) [DC47]
  BAW Rating: A (50-100)

## Fc1cc(/C=C/C(c2cc(Cl)cc(Cl)c2)C(F)(F)F)ccc1-n1cncn1 (stereo not shown) [DC48]
  BAW Rating: A (50-100)

## FC(F)(F)C(/C=C/c1ccc(-n2cncn2)c(Cl)c1)c1cc(Cl)c(Cl)c(Cl)c1 (stereo not shown) [DC49]
  BAW Rating: A (50-100)

## FC(F)(F)C(/C=C/c1ccc(-n2cncn2)c(Cl)c1)c1cc(Cl)cc(Cl)c1 (stereo not shown) [DC50]
  BAW Rating: A (50-100)

## FC(F)(F)c1cc(/C=C/C(c2cc(Cl)cc(Cl)c2)C(F)(F)F)ccc1-n1cncn1 (stereo not shown) [DC51]
  BAW Rating: A (50-100)

## CNc1cc(/C=C/C(c2cc(Cl)cc(Cl)c2)C(F)(F)F)ccc1-n1cncn1 (stereo not shown) [DC57, (E)-5-(3-(3,5-Dichlorophenyl)-4,4,4-trifluorobut-1-en-1-yl)-N-methyl-2-(1H-1,2,4-triazol-1-yl)aniline]
  BAW Rating: A (50-100)

## CCOC(=O)c1cc(/C=C/C(c2cc(Cl)cc(Cl)c2)C(F)(F)F)ccc1-n1cncn1 (stereo not shown) [DC60]
  BAW Rating: A (50-100)

## Cc1cc(/C=C/C(c2cc(Cl)cc(Cl)c2)C(F)(F)F)ccc1-n1cncn1 (stereo not shown) [DC62]
  BAW Rating: A (50-100)

## Cc1cc(/C=C/C(c2cc(Cl)c(Cl)c(Cl)c2)C(F)(F)F)ccc1-n1cncn1 (stereo not shown) [DC63]
  BAW Rating: A (50-100)

## FC(F)(F)C(/C=C/c1ccc(-n2cncn2)cc1Cl)c1cc(Cl)c(Cl)c(Cl)c1 (stereo not shown) [DC66]
  BAW Rating: A (50-100)

## FC(F)(F)C(/C=C/c1ccc(-n2cncn2)cc1Cl)c1cc(Cl)cc(Cl)c1 (stereo not shown) [DC67]
  BAW Rating: A (50-100)
